In ChEMBL document CHEMBL5653631, “A Potent and Selective ULK1 Inhibitor Suppresses Autophagy and Sensitizes Cancer Cells to Nutrient Stress” (iScience, 2018):
Blank lines part the entries; values can stand above or below the compound they belong to.

Columns and labels:
[1] = target: Dual specificity protein kinase CLK3 (Homo sapiens) (UniProt P49761); test: Inhibition of human recombinant CLK3 at 500 nM in presence of ATP by radiometric assay relative to control
[2] = target: T1, Testis-specific serine/threonine-protein kinase 1 (Homo sapiens) (UniProt Q9BXA7); test: Inhibition of human recombinant TSSK1 at 500 nM in presence of ATP by radiometric assay relative to control
T1 sequence (whole entry): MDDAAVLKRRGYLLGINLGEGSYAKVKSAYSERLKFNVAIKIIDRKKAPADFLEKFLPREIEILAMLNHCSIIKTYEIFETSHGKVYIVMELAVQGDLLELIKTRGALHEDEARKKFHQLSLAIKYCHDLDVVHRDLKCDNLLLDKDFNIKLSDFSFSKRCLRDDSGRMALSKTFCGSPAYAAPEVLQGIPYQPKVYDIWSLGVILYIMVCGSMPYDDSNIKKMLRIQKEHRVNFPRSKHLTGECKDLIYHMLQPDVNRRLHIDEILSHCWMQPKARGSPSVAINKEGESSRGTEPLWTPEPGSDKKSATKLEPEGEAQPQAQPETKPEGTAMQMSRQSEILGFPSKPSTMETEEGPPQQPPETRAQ

[3] = target: Serine/threonine-protein kinase WNK3 (Homo sapiens) (UniProt Q9BYP7); test: Inhibition of human recombinant Wnk3 at 500 nM in presence of ATP by radiometric assay relative to control
[4] = target: Ephrin type-A receptor 4 (Homo sapiens) (UniProt P54764); test: Inhibition of human recombinant EphA4 at 500 nM related to control ULK1
[5] = target: Leucine-rich repeat serine/threonine-protein kinase 2 (Homo sapiens) (UniProt Q5S007); test: Inhibition of human recombinant LRRK2 at 500 nM related to control ULK1
[6] = target: Rho-associated protein kinase 2 (Homo sapiens) (UniProt O75116); test: Inhibition of human recombinant ROCK2 at 500 nM related to control ULK1
[7] = target: Serine/threonine-protein kinase PAK 1 (Homo sapiens) (UniProt Q13153); test: Inhibition of human recombinant PAK1 at 500 nM related to control ULK1
[8] = target: Cyclin-dependent kinase 12 (Homo sapiens) (UniProt Q9NYV4); test: Inhibition of human recombinant CRK7 at 40 nM in presence of ATP by radiometric assay relative to control
[9] = target: T2, Muscle, skeletal receptor tyrosine-protein kinase (Homo sapiens) (UniProt O15146); test: Inhibition of human recombinant MUSK at 40 nM in presence of ATP by radiometric assay relative to control
T2 sequence (whole entry): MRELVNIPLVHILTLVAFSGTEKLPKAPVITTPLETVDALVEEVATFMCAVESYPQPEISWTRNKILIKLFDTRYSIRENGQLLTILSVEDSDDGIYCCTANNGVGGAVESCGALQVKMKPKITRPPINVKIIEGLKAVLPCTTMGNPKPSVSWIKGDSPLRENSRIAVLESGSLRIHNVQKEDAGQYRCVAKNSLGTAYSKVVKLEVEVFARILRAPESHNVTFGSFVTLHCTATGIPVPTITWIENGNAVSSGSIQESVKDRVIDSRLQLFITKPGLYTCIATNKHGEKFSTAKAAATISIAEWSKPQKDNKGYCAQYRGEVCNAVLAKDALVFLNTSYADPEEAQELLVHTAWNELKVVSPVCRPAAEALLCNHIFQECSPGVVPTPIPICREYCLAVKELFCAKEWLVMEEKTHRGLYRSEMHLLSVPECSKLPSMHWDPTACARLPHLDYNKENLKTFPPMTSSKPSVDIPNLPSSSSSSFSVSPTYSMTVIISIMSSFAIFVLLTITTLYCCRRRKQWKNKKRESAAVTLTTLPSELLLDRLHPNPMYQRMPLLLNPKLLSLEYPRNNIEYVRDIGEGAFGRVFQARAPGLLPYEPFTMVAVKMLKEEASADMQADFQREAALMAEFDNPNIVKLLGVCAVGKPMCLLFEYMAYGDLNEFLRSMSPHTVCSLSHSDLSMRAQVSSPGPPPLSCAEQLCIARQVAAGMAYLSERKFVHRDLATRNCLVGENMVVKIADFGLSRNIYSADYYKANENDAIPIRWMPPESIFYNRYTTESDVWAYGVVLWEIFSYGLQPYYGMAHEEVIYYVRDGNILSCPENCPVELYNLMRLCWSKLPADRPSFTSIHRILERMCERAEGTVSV

[10] = target: T3, Mitogen-activated protein kinase kinase kinase kinase 2 (Homo sapiens) (UniProt Q12851); test: Inhibition of human recombinant GCK at 40 nM related to control ULK1
T3 sequence (whole entry): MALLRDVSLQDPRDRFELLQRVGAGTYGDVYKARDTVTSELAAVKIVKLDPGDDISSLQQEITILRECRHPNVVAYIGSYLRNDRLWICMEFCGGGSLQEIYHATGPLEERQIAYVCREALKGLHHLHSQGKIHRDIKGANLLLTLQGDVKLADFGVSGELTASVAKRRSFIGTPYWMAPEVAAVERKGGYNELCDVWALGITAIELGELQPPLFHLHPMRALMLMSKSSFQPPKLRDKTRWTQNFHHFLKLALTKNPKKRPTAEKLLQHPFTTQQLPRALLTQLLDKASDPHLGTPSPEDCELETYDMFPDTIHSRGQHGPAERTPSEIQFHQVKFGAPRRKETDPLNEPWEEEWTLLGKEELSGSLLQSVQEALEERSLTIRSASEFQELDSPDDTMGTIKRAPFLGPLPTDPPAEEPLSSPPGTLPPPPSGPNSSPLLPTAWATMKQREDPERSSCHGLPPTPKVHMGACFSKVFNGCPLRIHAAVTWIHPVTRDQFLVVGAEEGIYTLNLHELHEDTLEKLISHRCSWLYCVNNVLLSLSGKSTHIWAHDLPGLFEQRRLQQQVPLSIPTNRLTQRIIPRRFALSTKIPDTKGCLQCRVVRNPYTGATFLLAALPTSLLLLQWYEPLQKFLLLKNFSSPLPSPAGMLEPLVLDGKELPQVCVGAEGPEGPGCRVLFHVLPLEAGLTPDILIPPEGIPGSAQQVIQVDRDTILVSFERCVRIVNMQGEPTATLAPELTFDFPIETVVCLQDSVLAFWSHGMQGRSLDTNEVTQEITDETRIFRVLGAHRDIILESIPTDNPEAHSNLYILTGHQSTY

[11] = target: Wee1-like protein kinase 2 (Homo sapiens) (UniProt P0C1S8); test: Inhibition of human recombinant Wee1B at 40 nM related to control ULK1
[12] = target: Maternal embryonic leucine zipper kinase (Homo sapiens) (UniProt Q14680); test: Inhibition of human recombinant MELK at 15 nM related to control ULK1
[13] = target: Ribosomal protein S6 kinase alpha-3 (Homo sapiens) (UniProt P51812); test: Inhibition of human recombinant RSK2 at 15 nM related to control ULK1

Sequence of Serine/threonine-protein kinase WNK3 (Homo sapiens) (Q9BYP7 whole entry): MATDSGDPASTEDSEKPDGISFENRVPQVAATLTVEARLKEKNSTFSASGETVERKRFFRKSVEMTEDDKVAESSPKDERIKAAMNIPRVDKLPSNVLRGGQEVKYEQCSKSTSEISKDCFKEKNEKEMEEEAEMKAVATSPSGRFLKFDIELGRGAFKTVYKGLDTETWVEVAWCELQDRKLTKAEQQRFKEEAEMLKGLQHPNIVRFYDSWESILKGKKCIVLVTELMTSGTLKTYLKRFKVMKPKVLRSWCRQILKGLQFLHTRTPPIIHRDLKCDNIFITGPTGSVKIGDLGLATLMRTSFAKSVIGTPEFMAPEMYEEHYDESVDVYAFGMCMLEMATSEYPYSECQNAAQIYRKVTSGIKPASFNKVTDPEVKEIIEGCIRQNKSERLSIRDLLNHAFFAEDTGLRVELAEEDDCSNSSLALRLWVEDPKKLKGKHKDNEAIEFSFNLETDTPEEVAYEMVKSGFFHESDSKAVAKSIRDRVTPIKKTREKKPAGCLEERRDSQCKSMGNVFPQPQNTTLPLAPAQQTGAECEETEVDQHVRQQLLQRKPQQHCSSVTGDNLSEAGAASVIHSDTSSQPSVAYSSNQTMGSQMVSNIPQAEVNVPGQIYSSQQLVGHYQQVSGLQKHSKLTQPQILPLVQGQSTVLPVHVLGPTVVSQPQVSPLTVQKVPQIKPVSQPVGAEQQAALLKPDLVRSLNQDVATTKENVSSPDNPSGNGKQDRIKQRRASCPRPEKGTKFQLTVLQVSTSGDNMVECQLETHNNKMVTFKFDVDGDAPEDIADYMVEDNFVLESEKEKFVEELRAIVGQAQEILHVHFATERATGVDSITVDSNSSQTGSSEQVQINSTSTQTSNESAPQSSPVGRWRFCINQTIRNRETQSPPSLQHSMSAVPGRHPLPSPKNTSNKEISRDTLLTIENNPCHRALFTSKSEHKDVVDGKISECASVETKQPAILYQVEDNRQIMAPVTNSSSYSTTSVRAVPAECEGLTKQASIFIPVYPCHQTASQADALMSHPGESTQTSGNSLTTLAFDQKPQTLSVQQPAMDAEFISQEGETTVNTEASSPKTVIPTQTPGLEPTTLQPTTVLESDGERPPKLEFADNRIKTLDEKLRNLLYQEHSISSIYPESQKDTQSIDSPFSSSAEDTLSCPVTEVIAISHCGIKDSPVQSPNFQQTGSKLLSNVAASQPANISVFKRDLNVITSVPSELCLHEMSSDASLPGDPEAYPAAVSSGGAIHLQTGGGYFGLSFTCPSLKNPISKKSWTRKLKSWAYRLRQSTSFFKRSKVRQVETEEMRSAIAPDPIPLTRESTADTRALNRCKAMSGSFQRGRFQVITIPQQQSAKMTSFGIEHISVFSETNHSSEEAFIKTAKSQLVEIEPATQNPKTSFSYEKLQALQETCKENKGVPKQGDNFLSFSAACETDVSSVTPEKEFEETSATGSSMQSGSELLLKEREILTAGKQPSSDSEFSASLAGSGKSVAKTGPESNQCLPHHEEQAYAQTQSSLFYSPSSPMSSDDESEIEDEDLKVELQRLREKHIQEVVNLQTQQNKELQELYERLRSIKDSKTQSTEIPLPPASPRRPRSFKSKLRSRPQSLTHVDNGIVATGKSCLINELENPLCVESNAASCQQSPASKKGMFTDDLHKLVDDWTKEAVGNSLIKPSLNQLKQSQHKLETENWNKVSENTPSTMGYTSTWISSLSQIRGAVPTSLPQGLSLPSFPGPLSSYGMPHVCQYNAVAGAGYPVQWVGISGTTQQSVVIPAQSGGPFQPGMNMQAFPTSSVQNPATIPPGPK
Sequence of Cyclin-dependent kinase 12 (Homo sapiens) (Q9NYV4 whole entry, looked up): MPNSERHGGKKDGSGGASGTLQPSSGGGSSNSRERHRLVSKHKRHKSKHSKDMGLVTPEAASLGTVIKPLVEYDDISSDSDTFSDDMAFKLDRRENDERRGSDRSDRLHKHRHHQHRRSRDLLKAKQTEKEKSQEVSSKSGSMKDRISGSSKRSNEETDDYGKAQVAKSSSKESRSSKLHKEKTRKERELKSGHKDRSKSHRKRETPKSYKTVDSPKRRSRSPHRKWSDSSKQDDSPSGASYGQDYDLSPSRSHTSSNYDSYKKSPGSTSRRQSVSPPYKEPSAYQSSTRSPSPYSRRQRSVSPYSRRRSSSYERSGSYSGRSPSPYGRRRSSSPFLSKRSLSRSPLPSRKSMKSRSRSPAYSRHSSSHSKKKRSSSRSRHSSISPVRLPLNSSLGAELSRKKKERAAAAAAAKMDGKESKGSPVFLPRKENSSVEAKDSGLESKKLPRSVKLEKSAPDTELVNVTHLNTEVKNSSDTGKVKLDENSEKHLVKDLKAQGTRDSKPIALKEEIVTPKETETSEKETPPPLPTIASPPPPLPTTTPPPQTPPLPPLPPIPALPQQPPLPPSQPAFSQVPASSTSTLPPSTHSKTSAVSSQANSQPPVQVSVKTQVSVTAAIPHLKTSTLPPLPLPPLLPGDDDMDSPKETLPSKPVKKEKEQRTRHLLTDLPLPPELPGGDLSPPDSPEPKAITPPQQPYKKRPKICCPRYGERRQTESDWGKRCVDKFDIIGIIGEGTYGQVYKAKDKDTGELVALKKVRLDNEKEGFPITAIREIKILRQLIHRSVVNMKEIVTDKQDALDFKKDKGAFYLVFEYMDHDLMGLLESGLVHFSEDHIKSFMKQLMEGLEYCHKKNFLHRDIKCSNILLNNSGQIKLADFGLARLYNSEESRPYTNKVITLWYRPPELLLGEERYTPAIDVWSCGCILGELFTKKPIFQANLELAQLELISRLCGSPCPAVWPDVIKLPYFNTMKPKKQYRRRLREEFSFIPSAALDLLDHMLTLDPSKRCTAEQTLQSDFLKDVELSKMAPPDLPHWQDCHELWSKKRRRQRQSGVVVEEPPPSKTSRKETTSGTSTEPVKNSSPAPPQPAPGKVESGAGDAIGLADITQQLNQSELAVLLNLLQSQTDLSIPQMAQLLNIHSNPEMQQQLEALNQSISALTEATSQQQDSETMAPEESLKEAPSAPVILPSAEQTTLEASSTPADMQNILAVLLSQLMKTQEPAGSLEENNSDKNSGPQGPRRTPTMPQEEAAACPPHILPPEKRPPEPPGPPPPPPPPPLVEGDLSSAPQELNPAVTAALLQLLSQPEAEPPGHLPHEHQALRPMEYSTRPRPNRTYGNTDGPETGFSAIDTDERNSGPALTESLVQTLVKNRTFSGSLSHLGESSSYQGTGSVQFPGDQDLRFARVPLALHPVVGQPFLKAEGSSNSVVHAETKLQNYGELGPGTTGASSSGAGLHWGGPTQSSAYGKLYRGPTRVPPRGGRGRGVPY
Sequence of Serine/threonine-protein kinase PAK 1 (Homo sapiens) (Q13153 whole entry, looked up): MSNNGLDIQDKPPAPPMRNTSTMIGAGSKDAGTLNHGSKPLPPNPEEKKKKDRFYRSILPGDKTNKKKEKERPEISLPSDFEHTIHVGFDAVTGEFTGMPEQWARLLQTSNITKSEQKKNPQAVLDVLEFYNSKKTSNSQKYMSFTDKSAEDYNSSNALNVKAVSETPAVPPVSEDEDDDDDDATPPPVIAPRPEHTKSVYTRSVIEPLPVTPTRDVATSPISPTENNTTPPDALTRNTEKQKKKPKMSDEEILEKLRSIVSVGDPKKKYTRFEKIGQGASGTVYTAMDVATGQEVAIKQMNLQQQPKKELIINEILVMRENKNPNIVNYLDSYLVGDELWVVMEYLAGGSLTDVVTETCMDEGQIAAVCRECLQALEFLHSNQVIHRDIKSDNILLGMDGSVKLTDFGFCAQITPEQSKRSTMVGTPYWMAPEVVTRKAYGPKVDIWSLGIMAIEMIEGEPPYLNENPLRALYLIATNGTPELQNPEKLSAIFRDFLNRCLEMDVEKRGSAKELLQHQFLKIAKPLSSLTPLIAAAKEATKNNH
Sequence of Wee1-like protein kinase 2 (Homo sapiens) (P0C1S8 whole entry, looked up): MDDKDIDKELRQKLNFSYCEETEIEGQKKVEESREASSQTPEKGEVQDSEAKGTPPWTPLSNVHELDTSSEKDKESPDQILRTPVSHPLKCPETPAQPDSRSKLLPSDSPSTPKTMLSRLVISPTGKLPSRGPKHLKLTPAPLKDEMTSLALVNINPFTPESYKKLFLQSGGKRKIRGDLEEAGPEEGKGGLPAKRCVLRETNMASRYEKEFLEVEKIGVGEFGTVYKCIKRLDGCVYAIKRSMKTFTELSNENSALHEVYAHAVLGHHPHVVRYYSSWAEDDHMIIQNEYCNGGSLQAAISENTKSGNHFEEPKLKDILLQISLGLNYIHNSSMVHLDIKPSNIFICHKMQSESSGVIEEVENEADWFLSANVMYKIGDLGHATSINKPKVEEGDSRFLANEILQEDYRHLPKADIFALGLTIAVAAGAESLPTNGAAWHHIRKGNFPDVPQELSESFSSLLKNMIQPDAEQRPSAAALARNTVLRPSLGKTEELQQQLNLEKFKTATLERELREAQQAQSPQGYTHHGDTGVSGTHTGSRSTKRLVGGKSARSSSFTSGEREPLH
Sequence of Dual specificity protein kinase CLK3 (Homo sapiens) (P49761 whole entry, looked up): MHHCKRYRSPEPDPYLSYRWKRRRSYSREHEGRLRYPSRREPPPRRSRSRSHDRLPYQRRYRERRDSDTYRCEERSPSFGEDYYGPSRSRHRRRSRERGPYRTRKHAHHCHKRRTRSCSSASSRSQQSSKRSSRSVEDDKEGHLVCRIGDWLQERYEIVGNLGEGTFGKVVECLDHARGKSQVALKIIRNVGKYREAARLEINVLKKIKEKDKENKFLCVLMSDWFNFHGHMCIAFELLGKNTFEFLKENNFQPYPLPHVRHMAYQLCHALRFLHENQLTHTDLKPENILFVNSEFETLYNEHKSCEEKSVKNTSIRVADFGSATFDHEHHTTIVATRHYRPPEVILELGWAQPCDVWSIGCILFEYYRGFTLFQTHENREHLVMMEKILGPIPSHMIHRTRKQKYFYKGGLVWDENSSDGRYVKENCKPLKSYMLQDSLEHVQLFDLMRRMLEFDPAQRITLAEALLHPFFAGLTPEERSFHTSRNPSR

inhibition [1]: 0% | inhibition [2]: 0% | inhibition [3]: 6% | fold change (FC) [4]: 0.2 | fold change (FC) [5]: 0.47 | fold change (FC) [6]: 0 | fold change (FC) [7]: 0.27
SMILES: CNC(=O)c1ccccc1Oc1nc(Nc2cc(OC)c(OC)c(OC)c2)ncc1Br

inhibition [8]: 7% | inhibition [9]: 13% | fold change (FC) [10]: 0 | fold change (FC) [11]: 0
SMILES: O=C(N[C@@H](C1CC1)C(F)(F)F)c1cc(-c2cnn3cc(-c4ccc(F)cc4)cnc23)cs1

fold change (FC) [12]: 0.76 | fold change (FC) [13]: 0
SMILES: CC(C)[C@H](NC(=O)c1cc(-c2cnn3cc(-c4ccc(OCCN5CCCCC5)cc4)cnc23)cs1)C(F)(F)F
